# Experimental data: patent publication US3988461A, “Pharmaceutical composition for the treatment of Parkinson's disease” (priority 1974, dated 1976)
# Counter-ions that a name gives are not always drawn.
# Tests used:
# mice = assay: Toxicity Tests (oral, individual and joint toxicity)
# Procedure: (§1) The toxicities of the individual components were determined separately on mice. The active agents were suspended in water containing Tween 80, and the suspension was administered orally to the animals in a dosage of 20 ml./kg. The animals were kept under observation for 72 hours. The poisoned animals perished within 48 hours.
# (§2) The joint toxicity of the individual active agents was determined as follows:
# (§3) a. The animals were treated with 1 g/kg. of L-Dopa. 1 hour after the administration of L-Dopa, the animals were treated with varying amounts of Cyproheptadine hydrochloride.
# (§4) b. The animals were treated with 2 g./kg. of L-Dopa, and varying amounts of Cyproheptadine hydrochloride were administered subsequently.
# (§5) c. The animals were treated with 3 g./kg. of L-Dopa, and subsequently Cyproheptadine hydrochloride was administered in varying amounts.
# (§6) In order to evaluate the changes in toxicity, the expected toxicities of the compositions listed below were determined by constructing an isobole, and the calculated data were compared to the observed ones.
# [1] = as above; conditions: mouse, in vivo, po; for mortality at 72 h: Perishment, %
# Procedure: as §1, §2, §3, §4, §5, §6
# motility = assay: Examination of Locomotive Stimulating Effect on Motility Test
# Procedure: b. Examination of Locomotive Stimulating Effect on Motility Test
# The tests were performed on white mice. An intraperitoneal dosage of 500 mg./kg. of L-Dopa was administered 30 minutes after the pre-treatment with Cyproheptadine hydrochloride.
# [2] = system: Oxotremorine-induced tremor; assay: Inhibition of Oxotremorine-induced Tremor; type: in vivo, mice; conditions: for ED50 found: 30 min; for ED50 calculated: expected from isobole
# Procedure: The tests were performed on mice of both sexes, each weighing 20 to 30 g. The groups consisted of 20 animals each. The test animals were treated orally with varying amounts of Cyproheptadine hydrochloride or L-Dopa, respectively.
# 30 minutes after the administration of L-Dopa, varying amounts of Cyproheptadine hydrochloride were introduced, and after further 30 minutes the animals were treated with a standard dosage of Oxotremorine.
# In a further series of tests the animals were treated with 1 mg./kg. of Cyproheptadine hydrochloride. 30 minutes after the administration of Cyproheptadine hydrochloride, L-Dopa was introduced in varying amounts, and after a further period of 30 minutes the animals were treated with a standard dosage of Oxotremorine.
# The expected ED50 values were determined by constructing an isobole, and the expected values were compared to the observed ones.
# hexobarbital narcosis = assay: Examination of Sedative Effects, Hexobarbital Narcosis Test; conditions: for Positive animals/treated animals: positive = sleep higher by at least 150% than control
# Procedure: The side effects of the individual active agents as well as those of the compositions were examined as follows:
# Examination of Sedative Effects on Mice, According to the Hexobarbital Narcosis Test
# The compounds to be tested were suspended in water containing Tween 80, and 20 ml./kg. dosages of the obtained suspensions were administered orally to the test animals.
# [3] = system: Perphenazine-induced catalepsy; assay: Antagonism of Perphenazine-induced Catalepsy; type: in vivo, white rats
# Procedure: The synergistic increase in the antiparkinson effect was investigated by studying the inhibition of Oxotremorine-induced tremor and the antagonism of Perphenazine-induced catalepsy.
# The tests were performed on white rats of both sexes, each weighing 150 to 200 g. The animals were treated orally with varying amounts of Cyproheptadine hydrochloride or L-Dopa, respectively, and 30 minutes after the introduction of the active agents the animals were treated with a standard dosage of Perphenazine [2-chloro-10-(3-/4-(2-hydroxy-ethyl)-1-piperazinyl/-propyl)-phenothiazine]. The percentage of catalepsy inhibition was examined as a function of the time.
# The interaction of the active agents was studied on white rats, according to the method described above. Cyproheptadine hydrochloride was administered in oral dosages of 2 or 4 mg./kg., respectively. 30 minutes after the introduction of Cyproheptadine hydrochloride the animals were treated with varying amounts of L-Dopa, and after an additional period of 30 minutes the animals were treated with a standard dosage of Perphenazine.
# [4] = Cyproheptadine HCl 2.5 mg./kg. p.o. + physiological saline i.p.
# [5] = Cyproheptadine hydrochloride after 200 mg./kg. L-Dopa
# [6] = Cyproheptadine hydrochloride 10 mg./kg. oral
# [7] = Cyproheptadine hydrochloride 20 mg./kg. oral
# [8] = Table 5, Cyproheptadine HCl 2 mg./kg. alone
# [9] = Table 5, Cyproheptadine HCl 4 mg./kg. alone
# [10] = physiological saline p.o. + L-Dopa 500 mg./kg. i.p.
# [11] = L-Dopa after 1 mg./kg. Cyproheptadine HCl
smiles,measurement,setting,value
CN1CCC(=C2c3ccccc3C=Cc3ccccc32)CC1 [Cyproheptadine HCl],Perished animals/treated animals,"mice; 40 mg./kg., after 3 g./kg. L-Dopa",1/20
same,Perished animals/treated animals,"mice; 60 mg./kg., after 2 g./kg. L-Dopa",0/20
same,Perished animals/treated animals,"mice; 60 mg./kg., after 3 g./kg. L-Dopa",5/20
same,Perished animals/treated animals,"mice; 90 mg./kg., 1 hour after 1 g/kg. L-Dopa",2/20
same,Perished animals/treated animals,"mice; 90 mg./kg., after 2 g./kg. L-Dopa",2/20
same,Perished animals/treated animals,"mice; 90 mg./kg., after 3 g./kg. L-Dopa",9/20
same,Perished animals/treated animals,"mice; 200 mg./kg., 1 hour after 1 g/kg. L-Dopa",14/20
same,Perished animals/treated animals,"mice; 200 mg./kg., after 2 g./kg. L-Dopa",17/20
same,Perished animals/treated animals,"mice; 200 mg./kg., after 3 g./kg. L-Dopa",15/20
same,Perished animals/treated animals,"mice; 300 mg./kg., 1 hour after 1 g/kg. L-Dopa",19/20
same,LD50 at 72 h,[1],135 mg/kg
same,mortality at 72 h,"[1]; 40 mg/kg, 40 mg./kg., after 3 g./kg. L-Dopa",5%
same,mortality at 72 h,"[1]; 60 mg/kg, 60 mg./kg., after 2 g./kg. L-Dopa",0%
same,mortality at 72 h,"[1]; 60 mg/kg, 60 mg./kg., after 3 g./kg. L-Dopa",25%
same,mortality at 72 h,"[1]; 90 mg/kg, 90 mg./kg., 1 hour after 1 g/kg. L-Dopa",10%
same,mortality at 72 h,"[1]; 90 mg/kg, 90 mg./kg., after 2 g./kg. L-Dopa",10%
same,mortality at 72 h,"[1]; 90 mg/kg, 90 mg./kg., after 3 g./kg. L-Dopa",45%
same,mortality at 72 h,"[1]; 200 mg/kg, 200 mg./kg., 1 hour after 1 g/kg. L-Dopa",70%
same,mortality at 72 h,"[1]; 200 mg/kg, 200 mg./kg., after 2 g./kg. L-Dopa",85%
same,mortality at 72 h,"[1]; 200 mg/kg, 200 mg./kg., after 3 g./kg. L-Dopa",75%
same,mortality at 72 h,"[1]; 300 mg/kg, 300 mg./kg., 1 hour after 1 g/kg. L-Dopa",95%
same,Average No. of light interruptions,motility; [4],145
same,Change %,motility; [4],-36%
same,influence on locomotive stimulating effect of L-Dopa (in words),"motility; in the tested dosages, conclusion from Table 9",does not influence the locomotive stimulating effect of L-Dopa
same,"Inhibition, %",[2]; 0.2 mg./kg. after 200 mg./kg. L-Dopa pre-treatment,0%
same,"Inhibition, %",[2]; 0.4 mg./kg. after 200 mg./kg. L-Dopa pre-treatment,20%
same,"Inhibition, %",[2]; 0.8 mg./kg. after 200 mg./kg. L-Dopa pre-treatment,50%
same,"Inhibition, %",[2]; 1.6 mg./kg. after 200 mg./kg. L-Dopa pre-treatment,90%
same,Difference (percentage deviation of ED50 calculated vs. found),[2]; [5],+107%
same,ED50 found,[2]; [5],0.7 mg/kg
same,ED50,"[2]; Mus musculus, 0.5 h, Cyproheptadine hydrochloride alone, oral, 30 min before Oxotremorine",3 mg/kg
same,ED50 calculated,[2]; [5],1.45 mg/kg
same,% positive animals,hexobarbital narcosis; 2.5 mg./kg. oral,33%
same,Positive animals/treated animals,hexobarbital narcosis; 2.5 mg./kg. oral,6/18
same,% positive animals,hexobarbital narcosis; 5.0 mg./kg. oral,66%
same,Positive animals/treated animals,hexobarbital narcosis; 5.0 mg./kg. oral,4/6
same,% positive animals,hexobarbital narcosis; 10.0 mg./kg. oral,83%
same,Positive animals/treated animals,hexobarbital narcosis; 10.0 mg./kg. oral,5/6
same,Percentage inhibition after 0.5 hours,[3]; [6],89%
same,Percentage inhibition after 1 hours,[3]; [6],72%
same,Percentage inhibition after 2 hours,[3]; [6],61%
same,Percentage inhibition after 3 hours,[3]; [6],57%
same,Percentage inhibition after 0.5 hours,[3]; [7],76%
same,Percentage inhibition after 1 hours,[3]; [7],77%
same,Percentage inhibition after 2 hours,[3]; [7],73%
same,Percentage inhibition after 3 hours,[3]; [7],59%
same,Percentage inhibition after 0.5 hours,[3]; [8],37%
same,Percentage inhibition after 1 hours,[3]; [8],8%
same,Percentage inhibition after 2 hours,[3]; [8],14%
same,Percentage inhibition after 3 hours,[3]; [8],8%
same,Percentage inhibition after 0.5 hours,[3]; [9],20%
same,Percentage inhibition after 1 hours,[3]; [9],10%
same,Percentage inhibition after 2 hours,[3]; [9],14%
same,Percentage inhibition after 3 hours,[3]; [9],18%
"N[C@@H](Cc1ccc(O)c(O)c1)C(=O)O [L-Dopa, L-3,4-dihydroxyphenylalanine]",influence on toxicity of the other agent (in words),mice; pre-treatments with 1 and 2 g./kg. of L-dopa,hardly influence the toxicity of Cyproheptadine hydrochloride
same,LD50 at 72 h,[1],4200 mg/kg
same,Average No. of light interruptions,motility; [10],465
same,Change %,motility; [10],+105%
same,"Inhibition, %",[2]; L-Dopa 50 mg./kg. after 1 mg./kg. Cyproheptadine hydrochloride,15%
same,"Inhibition, %",[2]; L-Dopa 100 mg./kg. after 1 mg./kg. Cyproheptadine hydrochloride,52.5%
same,"Inhibition, %",[2]; L-Dopa 200 mg./kg. after 1 mg./kg. Cyproheptadine hydrochloride,67.5%
same,"Inhibition, %",[2]; L-Dopa 400 mg./kg. after 1 mg./kg. Cyproheptadine hydrochloride,85%
same,Difference (percentage deviation of ED50 calculated vs. found),[2]; [11],+117%
same,ED50 found,[2]; [11],120 mg/kg
same,ED50 calculated,[2]; [11],260 mg/kg
same,% positive animals,hexobarbital narcosis; 520 mg./kg. oral,0%
same,% positive animals,hexobarbital narcosis; 800 mg./kg. oral,16.6%
same,% positive animals,hexobarbital narcosis; 1200 mg./kg. oral,83%
same,Percentage inhibition after 0.5 hours,[3]; L-Dopa 100 mg./kg. oral,2%
same,Percentage inhibition after 1 hours,[3]; L-Dopa 100 mg./kg. oral,15%
same,Percentage inhibition after 2 hours,[3]; L-Dopa 100 mg./kg. oral,18%
same,Percentage inhibition after 3 hours,[3]; L-Dopa 100 mg./kg. oral,18%
same,Percentage inhibition after 4 hours,[3]; L-Dopa 100 mg./kg. oral,10%
same,Percentage inhibition after 0.5 hours,[3]; L-Dopa 200 mg./kg. oral,0%
same,Percentage inhibition after 1 hours,[3]; L-Dopa 200 mg./kg. oral,23%
same,Percentage inhibition after 2 hours,[3]; L-Dopa 200 mg./kg. oral,23%
same,Percentage inhibition after 3 hours,[3]; L-Dopa 200 mg./kg. oral,3%
same,Percentage inhibition after 4 hours,[3]; L-Dopa 200 mg./kg. oral,5%
same,Percentage inhibition after 0.5 hours,[3]; L-Dopa 400 mg./kg. oral,27%
same,Percentage inhibition after 1 hours,[3]; L-Dopa 400 mg./kg. oral,33%
same,Percentage inhibition after 2 hours,[3]; L-Dopa 400 mg./kg. oral,32%
same,Percentage inhibition after 3 hours,[3]; L-Dopa 400 mg./kg. oral,20%
same,Percentage inhibition after 4 hours,[3]; L-Dopa 400 mg./kg. oral,10%
